Experimental data as given in patent US20110212909A1, “Use of Ginsenoside Compound K in the Preparation of a Medicament for the Prevention and Treatment of Atherosclerosis” (priority 2008, published 2011).
Marks after values point to notes of the source that are not given here.

Columns and labels:
ABCA1 mRNA [1] = experiment: Real-time quantitative PCR of ABCA1 mRNA in foam cells; format: cell-based; details: 25 μM, rat foam cells
Method: FIG. 4 provides effects of a ginsenoside compound K (C-K, 25 μM) and pyrrolidine dithiocarbamate (PDTC, 25 μM) on the foam cell ABCA1 mRNA expression. a: P<0.05, vs foam cell group. PDTC (25 μM) C-K (25 μM) (n=5).
(1) Material and reagents (the same as Examples 2).
(2) real-time quantitative PCR analysis (a reference method: Zhang Yiguan, Li Xiaohui, Fan Jishan, Zhang Haigang, Li Shuhui, Liao Wenqiang, Pang Yan, Jia Yi. Total panax notoginsenosides suppress atherosclerosis formation in rats by means of antiinflammatory and blood fat regulating action. Progress in Modern Biomedicine. 2007, 27 (11): 1601-1607).
Data was expressed as x±s, variance analysis were carried out between groups by SPSS 13.0 software.

CD36 mRNA = experiment: Real-time quantitative PCR of CD36 mRNA in apo E−/− mouse aorta; format: in vivo; details: apo E−/− mice, 15 weeks
Method: (§1) 80 healthy clean grade C57BL/6J apo E^−/^− mice of 10 weeks old, wherein male and female mice were fifty-fifty, weight 20-22 g, were breed and divided into individual cage in sterile laminar flow rack, allowing mice to freely drink water and get food. Mice were raised for 30 weeks by “Western Diet” (routine mouse feed +0.15% cholesterol +21% fat) high fat feed (^60cobalt sterilization radiation treatment), with raising conditions being SPF grade, room temperature maintained at 24° C., relative humidity of 50%, and lighting time of 7: 30-19: 30. Animal house was sterilized by ultraviolet lamp once every two days, in order to maintain sterile environment of laminar flow rack (establishment of animal model of atherosclerosis refers to reference: Barish G D, Atkins A R, Downes M, Olson P, Chong L W, Nelson M, Zou Y H, Hwang H S, Kang H J, Curtiss L, Evans R M, Lee C H. PPARδ regulates multiple proinflammatory pathways to suppress atherosclerosis. Proc Natl Acad Sci, 2008, 105 (11): 4271-4276.).
(§2) 5 mice of apo E^−/^− mice raised for 15 weeks were randomly selected and sacrificed, root of aorta of which was taken, and replication condition in AS model was observed by HE staining. The remaining mice were randomly divided into 5 groups as follows (n=15): […]
(§3) Above drugs were firstly solved in DMSO, then suspended in 0.5% carboxymethylcellulose solution, mixed homogeneously, and then were administered via gavage, once a day. Mice were weighted once a week, and ingestion amounts were recorded, and drug doses were adjusted according to weight, interfering for 15 weeks. […]
(§4) • blood fat assay: TC, TG, HDL-C, and LDL-C concentrations in serum were determined by applying Olympus Au2700 fully automatic biochemical appearance. • serum inflammatory markers assay: hs-CRP and sCD40L concentrations were determined by applying double antibody sandwich ELISA, in accordance with ELISA kit operating instruction (hs-CRP ELISA kit bought from Herrenberg company, Germany; sCD40L ELISA kit bought from Bender Medsystems company, Austria). • real-time quantitative PCR analysis was carried out on expression of CD36, perilipin, ABCA1, LXRα, MMP-9 and NF-κ B mRNA in apo E^−/^− mouse aorta (a reference method: Zhang Yiguan, Li Xiaohui, Fan Jishan, Zhang Haigang, Li Shuhui, Liao Wenqiang, Pang Yan, Jia Yi. […] 2007, 27 (11): 1601-1607)0 • morphology index image analysis: When slices were HE stained, under X40 fold ordinary light microscope, artery atherosclerosis plaque area of each incisal surface was determined by “Image Pro Plus 5.0” image analysis software. […] As to Masosn staining, aortic root collagen area (CA) was measured by “Image Pro Plus 5.0” image analysis software, and collagen vessel area ratio (CA/CVA) was calculated. […]

ABCA1 mRNA [2] = experiment: Real-time quantitative PCR of ABCA1 mRNA in apo E−/− mouse aorta; format: in vivo; details: apo E−/− mice, 15 weeks
Method: as §1, §2, §3, §4

[3] = C-K high dose 50.0 mg/kg/day gavage
[4] = C-K middle dose 25.0 mg/kg/day gavage
[5] = simvastatin 10.0 mg/kg/day gavage

Row | Compound | expression of ABCA1 mRNA in foam cells compared with model group (ABCA1 mRNA [1]) | expression of CD36 mRNA in aorta (relative concentrations) (CD36 mRNA; [3]) | expression of CD36 mRNA in aorta (relative concentrations) (CD36 mRNA; C-K low dose 12.5 mg/kg/day gavage, model 1.12 ± 0.13) | expression of CD36 mRNA in aorta (relative concentrations) (CD36 mRNA; [4]) | expression of ABCA1 mRNA in aorta (relative concentrations) (ABCA1 mRNA [2]; [3]) | expression of ABCA1 mRNA in aorta (relative concentrations) (ABCA1 mRNA [2]; C-K low dose 12.5 mg/kg/day gavage, model 0.65 ± 0.18) | expression of ABCA1 mRNA in aorta (relative concentrations) (ABCA1 mRNA [2]; [4]) | expression of CD36 mRNA in aorta (relative concentrations) (CD36 mRNA; [5]) | expression of ABCA1 mRNA in aorta (relative concentrations) (ABCA1 mRNA [2]; [5])
1 | CC(C)=CCC[C@](C)(OC1OC(CO)C(O)C(O)C1O)C1CC[C@]2(C)C1[C@H](O)CC1[C@@]3(C)CC[C@H](O)C(C)(C)C3CC[C@]12C (stereo partly drawn) [C-K, 20-O-β-D-glucopyranosyl 20-(S)-protopanaxadiol] | significantly up-regulated | 0.31 ± 0.08^b | 0.54 ± 0.07^b | 0.47 ± 0.08^b | 1.34 ± 0.13^b | 1.08 ± 0.15^b | 1.19 ± 0.18^b |  | 
2 | CCC(C)(C)C(=O)O[C@H]1C[C@@H](C)C=C2C=C[C@H](C)[C@H](CC[C@@H]3C[C@@H](O)CC(=O)O3)[C@H]21 [simvastatin, reference compound] |  |  |  |  |  |  |  | 0.77 ± 0.11^a | 0.78 ± 0.12^a
